{"source": "patent US20070219180A1", "about": "“Muscle Relaxtion Accelerator and Therapeutic Agent for Muscular Tissue Diseases Such as Muscle Relaxation Failure” (priority 2004, published 2007)", "key": {"[1]": {"test_system": "myosin light chains", "assay": "Experiment 5: amount of precipitate of myosin light chains", "format": "binding, swine", "settings": "concentration of the compound 10^−3 mol", "protocol": "In this experiment, the effects of the compound were studied on the amount of precipitate of myosin light chains, which is a component of the troponin test sample used in Experiment 4.\nA sample buffer for polyacrylamide gel electrophoresis (SDS-PAGE) was added to each washed test precipitate, which was prepared in the manner described above, and mixed well to suspend the test precipitate. The resulting suspension was electrophoresed on a gel (PAG MINI “No. 1” 10/20) for about 1 hour at 40 mA. After electrophoresis, the suspension was silver-stained using “Daiichi” 2D-silver staining reagent (Daiichi Pure Chemicals Co., Ltd), and washed with distilled water and dried. The amount of precipitate in each silver-stained protein band obtained by gel electrophoresis was quantitated using a densitometer. […] The protein band from gel electrophoresis was stained using a reagent for mass spectrometry (silver staining reagent for mass spectrometry, Wako Pure Chemical Industries Ltd.), and a peptide fragment obtained from the protein that gave the band in gel electrophoresis was analyzed using high performance liquid chromatography (MAGIC2002, Michrom BioResources, Inc, USA)."}, "[2]": {"test_system": "male Wistar rats", "assay": "Experiment 12: effect on myocardial microcirculation (microsphere myocardial tissue blood flow rate)", "format": "in vivo, rat", "protocol": "The effects of the compound on myocardial microcirculation were examined. In this experiment, the 1-hydrochloride of the compound, 4-[3-(4-benzylpiperidin-1-yl)propionyl]-7-methoxy-2,3,4,5-tetrahydro-1,4-benzothiazepine 1-hydrochloride (hereinafter called the compound) was used as the 1,4-benzothiazepine derivative or pharmaceutically acceptable salt thereof.\nFour 8-week old male Wistar rats weighing 300-310 g were used in the study. The rats were anesthetized with 1,000 mg/kg of urethane and 80 mg/kg of α-chloralose by subperitoneal injection under artificial respiration (Harvard) using endotracheal intubation. In this experiment, 100 mg of the compound was dissolved in 1 ml of dimethylsulfoxide (DMSO) and the resulting DMSO solution of the compound was stored at 4° C. Norepinephrine solution was prepared by dissolving 1 mg of norepinephrine in 41 μl of distilled water, at an infusion speed of 30 μg/kg/min.\nFirstly, continuous infusion catheters of calcium chloride solution or norepinephrine solution containing calcium chloride were inserted into the right external jugular veins of the rats, and 2F polyethylene catheters for microspheres were inserted into the left ventricles via the right common arteries. In addition, test drug infusion catheters were inserted into the right femoral veins.\nA 1-lead electrocardiogram and the left ventricular pressure were recorded simultaneously on a personal computer via an A/D converter. In the preparation step, blood pressure, pulse, and electrocardiogram of the rats were monitored for 15 minutes and allowed to stabilize, and then 5% dextrose solution containing calcium chloride (at a concentration based on the weight of the rat) was infused into the right external jugular vein for 20 minutes at 16.6 μl/min (12 mg/kg/min of calcium chloride). Next, norepinephrine solution containing calcium chloride without changes in dosage regimen was immediately injected at a rate of 30 μg/kg/min via the right external jugular vein. After the start of administration, calcium chloride and norepinephrine were then continuously injected in the form of a norepinephrine solution containing calcium chloride. With continuous injection of calcium chloride via the right external jugular vein, 5% dextrose solution containing 0.1% DMSO solution was administered via the right femoral vein to Control A rat weighing 310 g (to which the compound was not administered) and to Control B rat weighing 300 g (to which the compound was not administered), 5 minutes before commencement of injection (intravenous injection) of the norepinephrine solution containing calcium chloride. In addition, with continuous injection of calcium chloride via the right external jugular vein, a 5% dextrose solution of the compound was continuously administered to Test 15 rat weighing 300 g and Test 16 rat weighing 300 g for 3 minutes at a rate of 0.33 mg/kg/min and subsequently for 25 minutes at a rate of 0.01 mg/kg/min, 5 minutes before commencement of injection (intravenous injection) of the norepinephrine solution containing calcium chloride via the right external jugular vein. The infusion rate was 0.5 ml/3 minutes for the first 3 minutes and then 0.05 ml/3 minutes.\nMyocardial tissue blood flow rate was measured twice using microspheres, 5 minutes before the start of calcium chloride administration and 20 minutes after the start of administration of norepinephrine solution containing calcium chloride. […]"}}, "note": "“And” between values parts separate entries of the source, which are not always exact repeats. Equal entries are not always repeated."}
{"compound": "COc1ccc2c(c1)CN(C(=O)CCN1CCC(Cc3ccccc3)CC1)CCS2", "note": "[the compound, 4-[3-(4-benzylpiperidine-1-yl)propionyl]-7-methoxy-2,3,4,5-tetrahydro-1,4-benzothiazepine]", "values": [{"measurement": "The amount of precipitate of myosin light chains (ratio to Test 1 = 1.0)", "setting": "[1]; Test 3: Ca^2+ concentration 0 mol", "result": 1.5}, {"measurement": "The amount of precipitate of myosin light chains (ratio to Test 1 = 1.0)", "setting": "[1]; Test 4: Ca^2+ concentration 10^−5 mol", "result": 1.4}, {"measurement": "Myocardial tissue blood flow rate", "setting": "[2]; 5 minutes before the start of CaCl2 administration (baseline), compound later 0.33 mg/kg/min 3 min then 0.01 mg/kg/min 25 min", "result": "4.6 mL/min/g and 4.3 mL/min/g"}, {"measurement": "Myocardial tissue blood flow rate, ratio to 5 minutes before CaCl2", "setting": "[2]; 5 minutes before the start of CaCl2 administration (defined as 100%)", "result": 100, "unit": "%"}, {"measurement": "Decrease in myocardial tissue blood flow under diastolic dysfunction with administration of the compound", "setting": "[2]; 20 minutes after the start of norepinephrine containing CaCl2", "result": "≤ 30", "unit": "%"}, {"measurement": "Myocardial tissue blood flow rate, ratio to 5 minutes before CaCl2", "setting": "[2]; 20 minutes after the start of norepinephrine solution containing CaCl2, compound 0.33 mg/kg/min 3 min then 0.01 mg/kg/min 25 min", "result": "70% and 98%"}, {"measurement": "Myocardial tissue blood flow rate", "setting": "[2]; 20 minutes after the start of norepinephrine solution containing CaCl2, compound 0.33 mg/kg/min 3 min then 0.01 mg/kg/min 25 min, from 5 min before norepinephrine", "result": "3.2 mL/min/g and 4.2 mL/min/g"}]}
